Where “and” joins values, the source holds several entries; their conditions need not be identical. Equal values may be shown once. Calls of active or inactive are those of the source. No rule for the calls is given here.
tested on: in vivo angiogenesis, blood vessel count; experiment: angiogenesis inhibition in living animals, in vivo study, HTS (AID 732); conditions: active compounds read low;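 tested at 30 µM in the well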;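 also: zebrafish embryos dosed at one day post fertilization; 0% = reference inhibitor and 100% = plate mean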

**Q.** Which vessel count % control does the source give for `C[C@]12N[C@H](Cc3ccccc31)c1ccccc12` here?
**A.** Its vessel count % control is 85.8% (inactive).

**Q.** With `COc1ccc(Cc2nccc3cc(OC)c(OC)cc23)cc1OC` as the molecule, how does the vessel count % control read?
**A.** The vessel count % control was 110% (inactive).

**Q.** How did the vessel count % control turn out when `Cc1cnc(C(=O)NCCc2ccc(S(=O)(=O)NC(=O)NC3CCCCC3)cc2)cn1` was run?
**A.** Its vessel count % control is 106% (inactive).

**Q.** With `C/C(=C\c1ccc(C(=O)O)cc1)c1ccc2c(c1)C(C)(C)CCC2(C)C` as the molecule, how does the vessel count % control read?
**A.** The vessel count % control was 70% (inactive).

**Q.** `CC(=O)[C@H]1CC[C@H]2[C@@H]3CC[C@H]4C[C@H](O)CC[C@]4(C)[C@H]3C(=O)C[C@]12C` was tested. Which vessel count % control did it give?
**A.** Its vessel count % control is 111% (inactive).

**Q.** `C[C@@H]1O[C@@H](O[C@H]2C[C@@H](O)[C@]3(CO)[C@H]4[C@H](O)C[C@]5(C)[C@@H](C6=CC(=O)OC6)CC[C@]5(O)[C@@H]4CC[C@]3(O)C2)[C@H](O)[C@H](O)[C@H]1O` was tested. Which vessel count % control did it give?
**A.** Its vessel count % control is 109% (inactive).

**Q.** `CC[C@H]1CN2CCc3cc(OC)c(OC)cc3[C@@H]2C[C@@H]1C[C@H]1NCCc2cc(OC)c(OC)cc21` was tested. Which vessel count % control did it give?
**A.** Its vessel count % control is 103% (inactive).

**Q.** `COc1cc2nc(N3CCN(C(=O)OCc4ccccc4)C(C(=O)NC(C)(C)C)C3)nc(N)c2cc1OC` (centres undefined) was tested. Which vessel count % control did it give?
**A.** Its vessel count % control is 104% (inactive).

**Q.** With `OCc1cnc[nH]1` as the molecule, how does the vessel count % control read?
**A.** The vessel count % control was 106% (inactive).

**Q.** For `C[N+]1(C)CCN(c2ccccc2)CC1`, which vessel count % control is on record?
**A.** Its vessel count % control is 89.3% (inactive).

**Q.** For `CP(=O)(O)C1=CCNCC1`, which vessel count % control is on record?
**A.** Its vessel count % control is 116% (inactive).

**Q.** With `O=S(=O)(c1cccc2c(Cl)cccc12)N1CCCNCC1` as the molecule, how does the vessel count % control read?
**A.** The vessel count % control was 109% (inactive).

**Q.** Which vessel count % control does the source give for `C[N+](C)(C)CCCCCC[N+](C)(C)C` here?
**A.** The vessel count % control was 115% (inactive) and 117% (inactive).

**Q.** For `O=C1C(c2c(O)[nH]c3c(Cl)ccc(Cl)c23)=Nc2ccc(Br)cc21`, which vessel count % control is on record?
**A.** The vessel count % control was 121% (inactive).

**Q.** How did the vessel count % control turn out when `COC[C@H]1OC(=O)c2coc3c2[C@@]1(C)C1=C(C3=O)C2CCC(=O)[C@@]2(C)C[C@H]1OC(C)=O` (some centres undefined) was run?
**A.** The vessel count % control was 0% (inactive).

**Q.** With `NC1CCN(O)C1=O` (centres undefined) as the molecule, how does the vessel count % control read?
**A.** The vessel count % control was 115% (inactive).

**Q.** How did the vessel count % control turn out when `CN(C(=O)CCCOc1ccc2[nH]c(=O)ccc2c1)C1CCCCC1` was run?
**A.** The vessel count % control was 94.5% (inactive).

**Q.** With `COc1[nH]c2ccc(F)cc2c1C(=O)OCC1CCN(CCNS(C)(=O)=O)CC1` as the molecule, how does the vessel count % control read?
**A.** Its vessel count % control is 99.6% (inactive).

**Q.** How did the vessel count % control turn out when `COc1ccccc1N1CCNCC1` was run?
**A.** Its vessel count % control is 96.7% (inactive).

**Q.** For `COc1ccccc1N1CCN(CC(O)COc2cccc3ccccc23)CC1` (centres undefined), which vessel count % control is on record?
**A.** Its vessel count % control is 91.2% (inactive).

**Q.** With `CCN1C[C@]2(C)CC[C@H](O)[C@@]34C5C[C@@H]6[C@@H](OC)C[C@@](O)(C5[C@H]6O)[C@@H](CC23)C14` (some centres undefined) as the molecule, how does the vessel count % control read?
**A.** The vessel count % control was 76.7% (inactive).

**Q.** For `Nc1ncnc2c1ncn2[C@@H]1O[C@H](CO)[C@H](O)C1O` (some centres undefined), which vessel count % control is on record?
**A.** Its vessel count % control is 105% (inactive).

**Q.** Which vessel count % control does the source give for `O=P(O)(O)C(Cl)(Cl)P(=O)(O)O` here?
**A.** Its vessel count % control is 110% (inactive).

**Q.** With `CC1(NCC(O)COc2cccc3[nH]ccc23)CCC(C(C)(C)NC(=O)CBr)CC1` (centres undefined) as the molecule, how does the vessel count % control read?
**A.** Its vessel count % control is 124% (inactive).

**Q.** `COc1ccc(CN(CCN(C)C)c2ccccn2)cc1` was tested. Which vessel count % control did it give?
**A.** Its vessel count % control is 106% (inactive).

**Q.** With `CN[C@@H](C)[C@H](O)c1ccccc1` as the molecule, how does the vessel count % control read?
**A.** Its vessel count % control is 91.4% (inactive).

**Q.** `N[C@H](C(=O)O)[C@H](O)C(=O)O` was tested. Which vessel count % control did it give?
**A.** The vessel count % control was 90.4% (inactive).

**Q.** For `Cc1oncc1C(=O)Nc1ccc(C(F)(F)F)cc1`, which vessel count % control is on record?
**A.** Its vessel count % control is 81.6% (inactive).

**Q.** Which vessel count % control does the source give for `CC(=O)SCC[N+](C)(C)C` here?
**A.** Its vessel count % control is 99% (inactive).

**Q.** How did the vessel count % control turn out when `Oc1ccc(Cn2cc[nH]c2=S)cc1` was run?
**A.** Its vessel count % control is 92.9% (inactive).

**Q.** With `OC[C@H]1O[C@@H](n2cnc3c(NC4CCCCC4)ncnc32)[C@H](O)[C@@H]1O` as the molecule, how does the vessel count % control read?
**A.** The vessel count % control was 104% (inactive).

**Q.** For `N#CC(C#N)=Cc1cc(O)c(O)c(O)c1`, which vessel count % control is on record?
**A.** Its vessel count % control is 107% (inactive).

**Q.** Which vessel count % control does the source give for `C#CC(N)CCC(=O)O` (centres undefined) here?
**A.** Its vessel count % control is 80% (inactive).

**Q.** With `NCCc1c[nH]c2ccccc12` as the molecule, how does the vessel count % control read?
**A.** Its vessel count % control is 118% (inactive).

**Q.** How did the vessel count % control turn out when `Cc1ccccc1CNc1ncnc2c1ncn2C1OC(CO)C(O)C1O` (centres undefined) was run?
**A.** Its vessel count % control is 93.1% (inactive).

**Q.** Which vessel count % control does the source give for `COc1ccc2c(c1)c(CC(=O)O)c(C)n2Cc1ccc(Cl)cc1` here?
**A.** Its vessel count % control is 109% (inactive).

**Q.** For `O=C1CCc2cc(OCCCCc3nnnn3C3CCCCC3)ccc2N1`, which vessel count % control is on record?
**A.** The vessel count % control was 124% (inactive).

**Q.** Which vessel count % control does the source give for `COc1ccccc1N1CCN(CCN(C(=O)c2ccc(I)cc2)c2ccccn2)CC1` here?
**A.** The vessel count % control was 105% (inactive).

**Q.** How did the vessel count % control turn out when `C[C@@H](CN1CCC(Cc2ccccc2)CC1)[C@@H](O)c1ccc(O)cc1` was run?
**A.** Its vessel count % control is 112% (inactive).

**Q.** How did the vessel count % control turn out when `C[C@H](Cc1ccccc1)Nc1ncnc2c1ncn2[C@@H]1O[C@H](CO)[C@H](O)C1O` (some centres undefined) was run?
**A.** Its vessel count % control is 99.9% (inactive).

**Q.** How did the vessel count % control turn out when `CN/C(=C\[N+](=O)[O-])NCCSCc1ccc(CN(C)C)o1` was run?
**A.** The vessel count % control was 112% (inactive).

**Q.** For `CC12C(=O)OC(=O)C1(C)C1CCC2O1` (centres undefined), which vessel count % control is on record?
**A.** The vessel count % control was 0% (inactive).

**Q.** Which vessel count % control does the source give for `O=C(O)CP(=O)(O)O` here?
**A.** The vessel count % control was 79.8% (inactive).

**Q.** `CC(=O)NCCc1ccc(O)c(O)c1` was tested. Which vessel count % control did it give?
**A.** Its vessel count % control is 105% (inactive).

**Q.** With `CN(C)CC/C=C1\c2ccccc2COc2ccccc21` as the molecule, how does the vessel count % control read?
**A.** The vessel count % control was 97.3% (inactive).

**Q.** `C=Cc1c(C)c2cc3[nH]c(cc4nc(cc5nc(cc1[nH]2)C(C)=C5CCC(=O)O)C(CCC(=O)O)=C4C)c(C)c3C=C` was tested. Which vessel count % control did it give?
**A.** The vessel count % control was 112% (inactive).

**Q.** How did the vessel count % control turn out when `O=[N+]([O-])c1ccc(CSc2ncnc3c2ncn3[C@@H]2O[C@H](CO)[C@H](O)C2O)cc1` (some centres undefined) was run?
**A.** The vessel count % control was 80.2% (inactive).

**Q.** Which vessel count % control does the source give for `COc1ccc2[nH]cc(CCNC(C)=O)c2c1` here?
**A.** Its vessel count % control is 76.5% (inactive).

**Q.** For `CCCC(=O)NCCc1c2n(c3ccc(OC)cc13)CCCc1ccccc1-2`, which vessel count % control is on record?
**A.** The vessel count % control was 92.5% (inactive).

From PubChem BioAssay AID732 (Emory University Molecular Libraries Screening Center, 2007)
